Results reported in US8859559B2, “Substituted pyrazines and their use in the treatment of disease” (Boehringer Ingelheim International GmbH, priority 2011, dated 2014).

Target: T1, ENaC (Epithelial Sodium Channel) (Mus musculus, UniProt Q61180+Q9WU38+Q9WU39)
T1 construct: Mouse kidney M-1 cells were cultivated in DMEM; endogenous in cells; host or cells: Mouse kidney M-1 cells (dexamethasone-treated, on transwell filters)
T1 sequence (Q61180 1-699): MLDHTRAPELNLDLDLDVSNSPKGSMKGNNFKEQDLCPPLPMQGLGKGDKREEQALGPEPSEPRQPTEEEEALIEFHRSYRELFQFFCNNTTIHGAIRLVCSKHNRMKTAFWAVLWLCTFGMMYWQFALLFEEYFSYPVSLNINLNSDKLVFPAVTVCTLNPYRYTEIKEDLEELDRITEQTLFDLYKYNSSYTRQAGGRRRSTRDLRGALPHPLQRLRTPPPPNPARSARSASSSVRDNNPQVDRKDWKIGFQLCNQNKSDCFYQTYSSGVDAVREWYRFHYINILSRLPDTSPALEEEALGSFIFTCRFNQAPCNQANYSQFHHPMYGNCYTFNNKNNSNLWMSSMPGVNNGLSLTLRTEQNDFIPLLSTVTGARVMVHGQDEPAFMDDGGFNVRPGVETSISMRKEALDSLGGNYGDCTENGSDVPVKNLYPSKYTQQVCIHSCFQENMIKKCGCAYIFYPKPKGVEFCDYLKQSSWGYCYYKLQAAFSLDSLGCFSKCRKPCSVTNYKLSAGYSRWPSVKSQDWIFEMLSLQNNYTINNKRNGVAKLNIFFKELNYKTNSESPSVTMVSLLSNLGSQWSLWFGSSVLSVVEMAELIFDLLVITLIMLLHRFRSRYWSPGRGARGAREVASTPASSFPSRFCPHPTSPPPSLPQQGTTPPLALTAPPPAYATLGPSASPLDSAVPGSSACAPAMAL
T1 sequence (Q9WU38 1-638): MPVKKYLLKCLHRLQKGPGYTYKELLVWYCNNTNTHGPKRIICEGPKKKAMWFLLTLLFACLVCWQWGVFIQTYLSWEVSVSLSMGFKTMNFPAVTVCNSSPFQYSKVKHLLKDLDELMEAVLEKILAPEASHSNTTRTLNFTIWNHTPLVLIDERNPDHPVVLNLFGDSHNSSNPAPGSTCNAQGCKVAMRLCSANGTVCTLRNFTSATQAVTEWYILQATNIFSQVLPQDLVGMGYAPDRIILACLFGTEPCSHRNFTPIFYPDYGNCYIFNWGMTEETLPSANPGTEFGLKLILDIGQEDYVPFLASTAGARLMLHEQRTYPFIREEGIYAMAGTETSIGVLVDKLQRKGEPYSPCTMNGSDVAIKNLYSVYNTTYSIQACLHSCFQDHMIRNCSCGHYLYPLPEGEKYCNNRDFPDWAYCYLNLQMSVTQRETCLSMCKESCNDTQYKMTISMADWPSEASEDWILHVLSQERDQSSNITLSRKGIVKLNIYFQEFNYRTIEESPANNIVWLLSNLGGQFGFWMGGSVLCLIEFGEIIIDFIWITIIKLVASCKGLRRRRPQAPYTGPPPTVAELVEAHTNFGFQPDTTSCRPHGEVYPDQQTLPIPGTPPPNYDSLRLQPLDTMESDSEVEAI
T1 sequence (Q9WU39 1-655): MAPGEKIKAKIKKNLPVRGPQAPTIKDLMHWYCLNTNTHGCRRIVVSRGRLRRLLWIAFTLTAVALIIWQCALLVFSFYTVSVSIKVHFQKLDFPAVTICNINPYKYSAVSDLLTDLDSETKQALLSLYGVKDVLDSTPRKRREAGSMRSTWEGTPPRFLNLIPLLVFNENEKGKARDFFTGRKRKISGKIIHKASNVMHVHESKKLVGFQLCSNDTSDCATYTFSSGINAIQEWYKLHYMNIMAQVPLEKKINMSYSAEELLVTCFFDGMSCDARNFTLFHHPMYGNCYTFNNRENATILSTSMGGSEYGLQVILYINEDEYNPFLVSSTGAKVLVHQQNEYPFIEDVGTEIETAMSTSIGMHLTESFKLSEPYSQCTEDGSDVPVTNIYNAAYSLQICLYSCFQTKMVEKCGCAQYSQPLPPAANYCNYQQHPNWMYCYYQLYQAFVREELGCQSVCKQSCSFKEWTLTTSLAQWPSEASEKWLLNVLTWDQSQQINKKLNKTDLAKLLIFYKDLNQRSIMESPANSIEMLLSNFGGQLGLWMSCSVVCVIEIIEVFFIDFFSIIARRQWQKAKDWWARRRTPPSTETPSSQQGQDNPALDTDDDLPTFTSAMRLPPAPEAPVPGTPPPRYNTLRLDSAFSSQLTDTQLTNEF
Assay: Ussing chamber: inhibition of amiloride sensitive short circuit current (I_sc) in M-1 cells
Type: cell-based
Conditions: mouse kidney M-1 cells
Protocol: Mouse kidney M-1 cells were cultivated in DMEM containing 5% FCS and 5 μM dexamethasone for 10 to 12 days on polyester transwell filters. Filters were inserted into a teflon-coated well-plate which fit into the in-house ussing chamber system. Prior to measurement the medium of M-1 cells was replaced with Caco-2 transport buffer (Invitrogen, Germany). During measurements, the Ussing chamber temperature was kept at 37° C. Short circuit currents (I_sc) were measured in the voltage-clamp mode using an in-house built amplifier (Boehringer Ingelheim, Biberach) with the software package Lab View for data acquisition and analysis. The transepithelial electrical resistance (TEER) was determined by the application of voltage steps of ±5 mV every 5 sec. Compounds were administered at a final concentration of 3 μM or at increasing concentrations (1-3-10 μM) to the apical solution. At the end of each experiment the amiloride sensitive I_SC was measured by adding 3 μM amiloride to the apical compartment. Results are expressed as inhibition in percent of the amiloride effect or as IC50. With the example compounds given above, the following IC50 values were determined in the Ussing Chamber assay: […]

SMILES | IC50 [nM]
N/C(=N\C(=O)c1nc(Cl)c(N)nc1N)NC1CCN(Cc2ccc(OCC(=O)O)cc2)CC1 [Example 8.8] | 86
[N-]=[N+]=NCCOCCOCCOCCNC(=O)c1ccc(CN2CCC(NC(N)=NC(=O)c3nc(Cl)c(N)nc3N)CC2)cc1 [Example 1.7] | 4
CN(Cc1cn(CCc2ccc(CN3CCC(N/C(N)=N/C(=O)c4nc(Cl)c(N)nc4N)CC3)cc2)nn1)C(=O)CCN [Example 4.1] | 9
NC(=NC(=O)c1nc(Cl)c(N)nc1N)NC1CCN(Cc2ccc(CCn3cc(COc4cccc(C(=O)NCCOCCO)c4)nn3)cc2)CC1 [Example 3.3] | 24
NC(=NC(=O)c1nc(Cl)c(N)nc1N)N[C@H]1CCCN(Cc2ccc(C(=O)O)cc2)C1 [Example 1.60] | 165
NC(=NC(=O)c1nc(Cl)c(N)nc1N)NC1CCN(Cc2ccc(C(=O)NCCc3cccnc3)cc2)CC1 [Example 1.24] | 3
NC(=NC(=O)c1nc(Cl)c(N)nc1N)NC1CCN(Cc2ccc(-c3cn(CCOCCOCCOCCOCCOCCOCCOCCO)nn3)cc2)CC1 [Example 3.29] | 12
NC(=NC(=O)c1nc(Cl)c(N)nc1N)NC1CCN(Cc2cc(C(=O)O)cc(C(=O)NCCOCCO)c2)CC1 [Example 8.6] | 53
CN(C)CCNC(=O)Cc1ccc(CN2CCC(NC(N)=NC(=O)c3nc(Cl)c(N)nc3N)CC2)cc1 [Example 2.5] | 6
COC(=O)C(c1ccccc1)N1CCC(NC(N)=NC(=O)c2nc(Cl)c(N)nc2N)CC1 (centres unmarked) [Example 1.37] | 17
NC(=NC(=O)c1nc(Cl)c(N)nc1N)NC1CCN(Cc2cccc(-c3cn(CCOCCOCCOCCOCCOCCO)nn3)c2)CC1 [Example 5.9] | 10
NC(=NC(=O)c1nc(Cl)c(N)nc1N)NC1CCN(Cc2ccc(CCC(=O)O)cc2)CC1 [Example 8.14] | 30
NC(=NC(=O)c1nc(Cl)c(N)nc1N)NC1CCN(Cc2ccc(-c3cn(CCOCCO)nn3)cc2)CC1 [Example 5.6] | 3
[N-]=[N+]=NCCc1ccc(CN2CCC(NC(N)=NC(=O)c3nc(Cl)c(N)nc3N)CC2)cc1 [Example 1.3] | 4
N/C(=N\C(=O)c1nc(Cl)c(N)nc1N)NC1CCN(Cc2ccc(B(O)O)cc2)CC1 [Example 1.15] | 7
NC(=NC(=O)c1nc(Cl)c(N)nc1N)NC1CCN(Cc2ccc(OCc3cn(CCOCCOCCOCCO)nn3)cc2)CC1 [Example 3.21] | 12
NC(=NC(=O)c1nc(Cl)c(N)nc1N)NC1CCN(Cc2cccc(-c3cn(CCOCCOCCOCCO)nn3)c2)CC1 [Example 3.36] | 4
NC(=NC(=O)c1nc(Cl)c(N)nc1N)NC1CCN(Cc2ccc(-c3cn(CCOCCOCCOC(c4ccccc4)(c4ccccc4)c4ccccc4)nn3)cc2)CC1 [Example 3.28] | 6
NC(=NC(=O)c1nc(Cl)c(N)nc1N)NC1CCN(Cc2ccc(OCC(=O)O)c(OCC(=O)O)c2)CC1 [Example 8.5] | 151
N/C(=N\C(=O)c1nc(Cl)c(N)nc1N)NC1CCN(Cc2ccc(C(=O)NCCCS(=O)(=O)O)cc2)CC1 [Example 2.1] | 12
COC(=O)COc1cccc(CN2CCC(NC(N)=NC(=O)c3nc(Cl)c(N)nc3N)CC2)c1 [Example 1.44] | 20

SMILES | IC50 [nM]
NC(=NC(=O)c1nc(Cl)c(N)nc1N)NC1CCN(Cc2ccc(C(=O)NCCCn3ccnc3)cc2)CC1 [Example 1.23] | 2
CN(C)Cc1cn(CCc2ccc(CN3CCC(NC(N)=NC(=O)c4nc(Cl)c(N)nc4N)CC3)cc2)nn1 [Example 3.4] | 7
COC(=O)Cc1cccc(CN2CCC(NC(N)=NC(=O)c3nc(Cl)c(N)nc3N)CC2)c1 [Example 1.6] | 4
[N-]=[N+]=NCCOCCOCCOCCn1cc(COc2ccc(CN3CCC(NC(N)=NC(=O)c4nc(Cl)c(N)nc4N)CC3)cc2)nn1 [Example 3.22] | 2
NC(=NC(=O)c1nc(Cl)c(N)nc1N)NC1CCN(Cc2ccc(-c3cn(CCOCCOCCOCCNC(=O)c4cc(OCCOCCOCCOCCOC(c5ccccc5)(c5ccccc5)c5ccccc5)cc(OCCOCCOCCOCCOC(c5ccccc5)(c5ccccc5)c5ccccc5)c4)nn3)cc2)CC1 [Example 3.31] | 49
CN(C)CCN(CCN(C)C)C(=O)c1ccc(CN2CCC(NC(N)=NC(=O)c3nc(Cl)c(N)nc3N)CC2)cc1 [Example 2.2] | 6
NC(=NC(=O)c1nc(Cl)c(N)nc1N)NC1CCN(Cc2ccc(-c3cn(CCOCCOCCOCCNCCOCCOCCO)nn3)cc2)CC1 [Example 3.35] | 4
COC(=O)c1ccc(CN2CCC(N/C(N)=N/C(=O)c3nc(Cl)c(N)nc3N)CC2)c(OC)c1 [Example 1.1] | 5
NC(=NC(=O)c1nc(Cl)c(N)nc1N)NC1CCN(Cc2ccc(C(=O)NCCc3cn(CCCO)cn3)cc2)CC1 [Example 1.52] | 2
NC(=NC(=O)c1nc(Cl)c(N)nc1N)NC1CCN(Cc2ccc(-n3cc(COCCO)nn3)cc2)CC1 [Example 3.11] | 6
CN(Cc1cn(CCc2ccc(CN3CCC(NC(N)=NC(=O)c4nc(Cl)c(N)nc4N)CC3)cc2)nn1)C(=O)CCNCCOCCOCCOCCO [Example 5.2] | 14
N/C(=N\C(=O)c1nc(Cl)c(N)nc1N)NC1CCN(Cc2ccc(CP(=O)(O)O)cc2)CC1 [Example 7.1] | 477
NC(=NC(=O)c1nc(Cl)c(N)nc1N)NC1CCN(Cc2cccc(-c3cn(CCOCCOCCOCCNCCOCCOCCOC(c4ccccc4)(c4ccccc4)c4ccccc4)nn3)c2)CC1 [Example 3.40] | 1
CN(C)CCCOc1ccc(CN2CCC(NC(N)=NC(=O)c3nc(Cl)c(N)nc3N)CC2)cc1 [Example 1.34] | 5
COC(=O)COc1ccc(CN2CC[C@H](NC(N)=NC(=O)c3nc(Cl)c(N)nc3N)C2)cc1 [Example 1.42] | 59
NC(=NC(=O)c1nc(Cl)c(N)nc1N)NC1CCN(Cc2ccc(OCc3cn(CCOCCOCCOCCNC(=O)c4cc(OCCOCCOCCO)cc(OCCOCCOCCO)c4)nn3)cc2)CC1 [Example 5.8] | 52
N#Cc1ccc(CN2CCC(N/C(N)=N/C(=O)c3nc(Cl)c(N)nc3N)CC2)cc1 [Example 1.40] | 2
NC(=NC(=O)c1nc(Cl)c(N)nc1N)NC1CCN(Cc2ccccc2C(=O)O)CC1 [Example 8.7] | 243
NC(=NC(=O)c1nc(Cl)c(N)nc1N)NC1CCN(Cc2ccc(CCn3cc(COCC(CO)(CO)CO)nn3)cc2)CC1 [Example 3.7] | 22
NC(=NC(=O)c1nc(Cl)c(N)nc1N)NC1CCN(Cc2ccc(OCc3cn(CCOCCOCCO)nn3)cc2)CC1 [Example 3.24] | 25
